What was measured:
[1] = In vitro EDTA challenge study; assay type: physicochemical
Protocol: In vitro EDTA challenge study. In vitro EDTA challenge study was carried out by adding 10 µL of each 89Zr-labeled complex (70 μCi, 2.59 MBq) to 500 µL of EDTA (10 mM, 50 mM and 100 mM: pH 5 and pH 7) with a 1:100, 1:500, and 1:1000 ratio of ligand/EDTA. The solutions (n=4) were incubated at 37 °C for 7 days in a thermomixer. Samples were analyzed at 30 min, 1 h, 3 h, 6 h, 1 d, 3 d, 5 d and 7 d post administration to EDTA by radio-TLC using Varian ITLC-SA strips and 0.1 M EDTA (pH 5) as the mobile phase and gamma counting using an energy window of 500-1500 keV and standard protocols .

[2] = In vitro metal competition study; assay type: physicochemical; conditions: PBS pH 7.4, 37 C
Protocol: In vitro Metal Competition study. To a solution of metal cations [iron (III) chloride, cobalt (II) chloride, zinc (II) chloride, copper (II) chloride, magnesium (II) chloride, gallium (III) nitrate, gadolinium (III) chloride] (1 mM, 200 µL), was added 89Zr-labeled complex (0.1 mM, 10 µL, 80 μCi, 2.96 MBq) in PBS, pH 7.4. The resulting solutions (n = 3) were incubated at 37 °C for 7 days in a thermomixer. Dissociation of 89Zr from 89Zr-complexes was monitored by radio-TLC at 2 h, 1 d, 4 d and 7 d time point. All studies were performed in triplicate.

[3] = In vitro serum stability (radio-ITLC); assay type: in vitro ADME; conditions: 37 C, after 7 days
Protocol: In vitro serum stability. In vitro serum stability was carried out by adding 10 µL of each 89Zr-labeled complex (70 μCi, 2.59 MBq) to 500 µL of human serum. The solutions (n=4) were incubated at 37 °C for 7 days and were analyzed daily for 1 week by radio -TLC using Varian ITLC-SA strips and 0.1 M EDTA (pH 5) as the mobile phase and gamma counting using an energy window of 500-1500 keV and standard protocols . Serum samples were also analyzed after 7 days by size exclusion chromatography (SEC) using a Superdex 200 10/300 GLTM column (GE Healthcare Life Sciences, Piscataway, NJ) and phosphate buffered saline (PBS) as eluent with a flow rate of 0.5 mL/min.
Figure S30. Radio-ITLC of 89Zr-DOTA solution in human serum at 37 °C after 0 h (a) and 7 days (b). […]

Biodistribution studies = assay type: in vivo, female NIH Swiss mice; conditions: mice, over the 72 h experiment
Protocol: Biodistribution Studies. Biodistribution studies were conducted using a modified literature procedure. 7 Briefly, female NIH Swiss mice (6-8 wk old, n=6) were injected with each 89Zr-labeled complex (0.55 MBq (15 μCi)/mouse) via the tail vein, and sacrificed at 2, 4, 24, 48, 72 h post-injection. Organs and tissues of interest were excised, weighted, and counted on a Perkin Elmer 2480 Wizard® gamma counter (Waltham, MA). The percent injected dose per gram (%ID/g) and percent injected dose per organ (%ID/organ) were calculated by comparison to a weighed, counted standard for each group (Tables S9 – S12).
Statistical Methods. All of the data are presented as mean±SD or mean (95% Confidence Interval). For statistical classification a student’s t test (two-tailed, unpaired) was performed using GraphPad Prism (San Diego, CA). Any p<0.05 was considered significant.

SMILES: NC(=O)CN1CCN(CC(N)=O)CCN(CC(N)=O)CCN(CC(N)=O)CC1.[89Zr+4] [89Zr-DOTAM]
- % Intact of 89Zr-complexes ([1]; EDTA 100-fold, pH 5.0, 37 C, 1 h): 97.7 ± 0.2%
- % Intact of 89Zr-complexes ([1]; EDTA 100-fold, pH 5.0, 37 C, 1 d): 84.4 ± 0.9%
- % Intact of 89Zr-complexes ([1]; EDTA 100-fold, pH 5.0, 37 C, 3 d): 67.6 ± 0.9%
- % Intact of 89Zr-complexes ([1]; EDTA 100-fold, pH 5.0, 37 C, 5 d): 49.6 ± 0.6%
- % Intact of 89Zr-complexes ([1]; EDTA 100-fold, pH 5.0, 37 C, 7 d): 42.3 ± 1.2%
- % Intact of 89Zr-complexes ([1]; EDTA 100-fold, pH 7.0, 37 C, 1 h): 99.0 ± 0.2%
- % Intact of 89Zr-complexes ([1]; EDTA 100-fold, pH 7.0, 37 C, 1 d): 90.9 ± 0.8%
- % Intact of 89Zr-complexes ([1]; EDTA 100-fold, pH 7.0, 37 C, 3 d): 86.1 ± 1.1%
- % Intact of 89Zr-complexes ([1]; EDTA 100-fold, pH 7.0, 37 C, 5 d): 75.7 ± 0.8%
- % Intact of 89Zr-complexes ([1]; EDTA 100-fold, pH 7.0, 37 C, 7 d): 72.1 ± 2.0%
- % Intact of 89Zr-complexes ([1]; EDTA 500-fold, pH 5.0, 37 C, 1 h): 97.5 ± 0.6%
- % Intact of 89Zr-complexes ([1]; EDTA 500-fold, pH 5.0, 37 C, 1 d): 80.0 ± 1.2%
- % Intact of 89Zr-complexes ([1]; EDTA 500-fold, pH 5.0, 37 C, 3 d): 47.0 ± 0.4%
- % Intact of 89Zr-complexes ([1]; EDTA 500-fold, pH 5.0, 37 C, 5 d): 22.8 ± 1.8%
- % Intact of 89Zr-complexes ([1]; EDTA 500-fold, pH 5.0, 37 C, 7 d): 12.2 ± 1.5%
- % Intact of 89Zr-complexes ([1]; EDTA 500-fold, pH 7.0, 37 C, 1 h): 98.5 ± 0.2%
- % Intact of 89Zr-complexes ([1]; EDTA 500-fold, pH 7.0, 37 C, 1 d): 90.8 ± 0.9%
- % Intact of 89Zr-complexes ([1]; EDTA 500-fold, pH 7.0, 37 C, 3 d): 77.5 ± 1.4%
- % Intact of 89Zr-complexes ([1]; EDTA 500-fold, pH 7.0, 37 C, 5 d): 66.6 ± 0.5%
- % Intact of 89Zr-complexes ([1]; EDTA 500-fold, pH 7.0, 37 C, 7 d): 58.1 ± 1.4%
- % Intact of 89Zr-complexes ([1]; EDTA 1000-fold, pH 5.0, 37 C, 1 h): 96.5 ± 0.2%
- % Intact of 89Zr-complexes ([1]; EDTA 1000-fold, pH 5.0, 37 C, 1 d): 77.0 ± 1.3%
- % Intact of 89Zr-complexes ([1]; EDTA 1000-fold, pH 5.0, 37 C, 3 d): 38.3 ± 1.5%
- % Intact of 89Zr-complexes ([1]; EDTA 1000-fold, pH 5.0, 37 C, 5 d): 13.4 ± 1.6%
- % Intact of 89Zr-complexes ([1]; EDTA 1000-fold, pH 5.0, 37 C, 7 d): 5.7 ± 1.0%
- % Intact of 89Zr-complexes ([1]; EDTA 1000-fold, pH 7.0, 37 C, 1 h): 98.3 ± 0.1%
- % Intact of 89Zr-complexes ([1]; EDTA 1000-fold, pH 7.0, 37 C, 1 d): 88.6 ± 0.4%
- % Intact of 89Zr-complexes ([1]; EDTA 1000-fold, pH 7.0, 37 C, 3 d): 69.9 ± 1.8%
- % Intact of 89Zr-complexes ([1]; EDTA 1000-fold, pH 7.0, 37 C, 5 d): 58.2 ± 1.3%
- % Intact of 89Zr-complexes ([1]; EDTA 1000-fold, pH 7.0, 37 C, 7 d): 47.4 ± 0.9%
- % Intact of 89Zr-complexes ([2]; Co2+, 2 h): 92.6 ± 0.5%
- % Intact of 89Zr-complexes ([2]; Co2+, 1 d): 88.6 ± 0.3%
- % Intact of 89Zr-complexes ([2]; Co2+, 4 d): 85.8 ± 0.4%
- % Intact of 89Zr-complexes ([2]; Co2+, 7 d): 80.9 ± 1.0%
- % Intact of 89Zr-complexes ([2]; Cu2+, 2 h): 91.9 ± 0.1%
- % Intact of 89Zr-complexes ([2]; Cu2+, 1 d): 86.7 ± 0.7%
- % Intact of 89Zr-complexes ([2]; Cu2+, 4 d): 80.5 ± 0.8%
- % Intact of 89Zr-complexes ([2]; Cu2+, 7 d): 74.1 ± 1.2%
- % Intact of 89Zr-complexes ([2]; Fe3+, 2 h): 92.4 ± 0.5%
- % Intact of 89Zr-complexes ([2]; Fe3+, 1 d): 89.8 ± 0.2%
- % Intact of 89Zr-complexes ([2]; Fe3+, 4 d): 87.2 ± 0.8%
- % Intact of 89Zr-complexes ([2]; Fe3+, 7 d): 85.8 ± 0.8%
- % Intact of 89Zr-complexes ([2]; Ga3+, 2 h): 92.9 ± 0.7%
- % Intact of 89Zr-complexes ([2]; Ga3+, 1 d): 87.9 ± 0.7%
- % Intact of 89Zr-complexes ([2]; Ga3+, 4 d): 86.6 ± 2.3%
- % Intact of 89Zr-complexes ([2]; Ga3+, 7 d): 80.3 ± 0.4%
- % Intact of 89Zr-complexes ([2]; Gd3+, 2 h): 93.9 ± 0.3%
- % Intact of 89Zr-complexes ([2]; Gd3+, 1 d): 90.6 ± 0.3%
- % Intact of 89Zr-complexes ([2]; Gd3+, 4 d): 88.8 ± 0.6%
- % Intact of 89Zr-complexes ([2]; Gd3+, 7 d): 86.3 ± 0.1%
- % Intact of 89Zr-complexes ([2]; Mg2+, 2 h): 93.6 ± 1.0%
- % Intact of 89Zr-complexes ([2]; Mg2+, 1 d): 90.5 ± 0.5%
- % Intact of 89Zr-complexes ([2]; Mg2+, 4 d): 87.4 ± 0.9%
- % Intact of 89Zr-complexes ([2]; Mg2+, 7 d): 93.1 ± 0.8%
- % Intact of 89Zr-complexes ([2]; Zn2+, 2 h): 94.1 ± 0.5%
- % Intact of 89Zr-complexes ([2]; Zn2+, 1 d): 89.4 ± 1.9%
- % Intact of 89Zr-complexes ([2]; Zn2+, 4 d): 71.9 ± 1.7%
- % Intact of 89Zr-complexes ([2]; Zn2+, 7 d): 57.0 ± 1.8%
- Radio-ITLC peak of complex in human serum [3]: 99.2%
- Radioactivity retention in liver and spleen tissues (Biodistribution studies): retained elevated levels of radioactivity

From publication PMC5363373, “Zirconium tetraazamacrocycle complexes display extraordinary stability and provide a new strategy for zirconium-89-based radiopharmaceutical development” (Chemical Science, 2016)
